{"source": "patent US20180289957A1", "about": "“REMINERALISATION OF CALCIFIED TISSUE” (Reminova Ltd., priority 2008, published 2018)", "system": "extracted incisor tooth", "experiment": "Tooth-whitening effect on extracted incisor tooth, images before and after treatment", "conditions": "2 minutes pre-conditioning with solution, no remineralising agent", "source_text": "This image was taken prior to any treatment being carried out.\nThe dark discolourations in the enamel of the crown of the tooth adjacent to the cavity have also disappeared."}
{"smiles": "OCl", "note": "[hypochlorite, sodium hypochlorite]", "values": [{"measurement": "tooth discolouration, difference versus before treatment", "result": "very little difference"}]}
